US20150209327A1, “METHODS FOR THE TREATMENT OF OBESITY USING APREMILAST” (Celgene Corporation, priority 2014, published 2015)
“And” between values parts separate entries of the source, which are not always exact repeats. Equal entries are not always repeated.

Legend:
[1] = Psoriatic Arthritis (PsA) Phase 3 Data Pool: weight change; assay type: in vivo, human; details: for Weight % Change Category 0%, n (%) / Weight % Change Category <−20%, n (%) / Weight % Change Category >0% to ≦5%, n (%) / Weight % Change Category >5% to ≦10%, n (%) / Weight % Change Category >10% to ≦20%, n (%) / Weight % Change Category >20%, n (%) / Weight % Change Category ≧−5% to <0%, n (%) / Weight % Change Category ≧−10% to <−5%, n (%) / Weight % Change Category ≧−20% to <−10%, n (%): Subjects as Treated; for observed weight loss of greater than 10%, subjects n (%) / percentage of subjects with weight change of -10% to <−5%: Weeks 0 to 16
Source text: Apremilast has shown benefit of weight loss in both Phase 2 and Phase 3 Psoriatic Arthritis (PSA) and Psoriasis (PSOR) trials.

PDE1 = PDE1 enzyme assay; assay type: biochemical; details: at 10 μM
Protocol: PDE1, 2, 3 and 5 enzyme assays were prepared as described by Hidaka and Asano. Biochem. Biophys. Acta., 1976, 429:485; see also Nicholsen et al., Trends Pharmaco. Sci., 1991, 12:19. The PDE6 enzyme assay was prepared according to Baehr et al., J. Biol. Chem., 1979, 254:11669 and Gillespie et al., Mol. Pharm., 1989, 36: 773. The PDE7 enzyme assay was prepared according to Bloom and Beavo. Proc. Natl. Acad. Sci. USA, 1996, 93:14188-92.

[2] = 20 mg BID, Apremilast-exposure Period, m = 943
[3] = 20 mg BID, End of Period (APR, apremilast exposure), Subjects as Initially Treated at Week 0
[4] = 20 mg BID, End of Period (PBC, Week 24), Subjects as Initially Treated at Week 0
[5] = 20 mg BID, End of Period (apremilast exposure), Apremilast Subjects as Treated
[6] = 20 mg BID, Week 52, Apremilast Subjects as Treated
[7] = 20 mg BID, Week 78, Apremilast Subjects as Treated
[8] = 30 mg BID, Apremilast-exposure Period, m = 944
[9] = 30 mg BID, End of Period (APR, apremilast exposure), Subjects as Initially Treated at Week 0
[10] = 30 mg BID, End of Period (PBC, Week 24), Subjects as Initially Treated at Week 0
[11] = 30 mg BID, End of Period (apremilast exposure), Apremilast Subjects as Treated
[12] = 30 mg BID, Week 52, Apremilast Subjects as Treated
[13] = 30 mg BID, Week 78, Apremilast Subjects as Treated

With `CCOc1cc([C@@H](CS(C)(=O)=O)N2C(=O)c3cccc(NC(C)=O)c3C2=O)ccc1OC` [Apremilast, (+)-2-[1-(3-ethoxy-4-methoxyphenyl)-2-methylsulfonylethyl]-4-acetylaminoisoindoline-1,3-dione] the “weight decrease reported, subjects n (%)” value ([1]; 20 mg BID) was 10 (1.0%) n (%), the “weight loss of greater than 10%, subjects n (%)” value ([1]; 20 mg BID, Apremilast-exposure Period) was 42 (4.5%) n (%) and the “Weight % Change Category 0%, n (%)” value [1, 2] was 74 (7.8) n (%). The “Weight % Change Category <−20%, n (%)” value [1, 2] was 1 (0.1) n (%), the “Weight % Change Category >0% to ≦5%, n (%)” value [1, 2] was 280 (29.7) n (%) and the “Weight % Change Category >5% to ≦10%, n (%)” value [1, 2] was 42 (4.5) n (%). The “Weight % Change Category >10% to ≦20%, n (%)” value [1, 2] was 14 (1.5) n (%), the “Weight % Change Category >20%, n (%)” value [1, 2] was 0 n (%) and the “Weight % Change Category ≧−5% to <0%, n (%)” value [1, 2] was 393 (41.7) n (%). The “Weight % Change Category ≧−10% to <−5%, n (%)” value [1, 2] was 98 (10.4) n (%), the “Weight % Change Category ≧−20% to <−10%, n (%)” value [1, 2] was 41 (4.3) n (%) and the “Change From Baseline (kg) Median (Min, Max)” value [1, 3] was −0.60 (−44.3, 14.0) kg. The “Weight, kg End of Period Mean ± SD” value [1, 3] was 84.38 ± 20.636 kg, the “Change From Baseline (kg) Mean ± SD” value ([1]; 20 mg BID, End of Period (APR, apremilast exposure), Subjects as Initially Treated at Week 0, listed as APR) was -1.13 kg and -1.13 ± 4.491 kg and the “Change From Baseline (kg) Median (Min, Max)” value [1, 4] was −0.50 (−17.2, 11.5) kg. The “Weight, kg End of Period Mean ± SD” value [1, 4] was 84.47 ± 20.734 kg, the “Change From Baseline (kg) Mean ± SD” value ([1]; 20 mg BID, End of Period (PBC, Week 24), Subjects as Initially Treated at Week 0, listed as APR) was -1.05 kg and -1.05 ± 3.366 kg and the “Change From Baseline (kg) Mean ± SD” value [1, 5] was -1.16 ± 4.255 kg. For the same compound, the “Change From Baseline (kg) Median (Min, Max)” value [1, 5] was −0.50 (−44.3, 14.0) kg, the “Weight, kg Time Point Mean ± SD” value [1, 5] was 84.65 ± 20.541 kg and the “Change From Baseline (kg) Median (Min, Max)” value [1, 6] was −1.00 (−26.0, 12.5) kg. The “Weight, kg Time Point Mean ± SD” value [1, 6] was 84.89 ± 20.190 kg, the “Change From Baseline (kg) Mean ± SD” value ([1]; 20 mg BID, Week 52, Apremilast Subjects as Treated, listed as APR) was -1.25 kg and -1.25 ± 4.223 kg and the “Change From Baseline (kg) Median (Min, Max)” value [1, 7] was −1.00 (−44.3, 14.0) kg. For the same compound, the “Weight, kg Time Point Mean ± SD” value [1, 7] was 86.63 ± 19.721 kg, the “Change From Baseline (kg) Mean ± SD” value ([1]; 20 mg BID, Week 78, Apremilast Subjects as Treated, listed as APR) was -1.70 kg and -1.70 ± 6.192 kg and the “Weight % Change Category 0%, n (%)” value ([1]; 20 mg BID, Weeks 0-16, m = 868) was 122 (14.1) n (%). The “Weight % Change Category <−20%, n (%)” value ([1]; 20 mg BID, Weeks 0-16, m = 868) was 0 n (%), the “Weight % Change Category >0% to ≦5%, n (%)” value ([1]; 20 mg BID, Weeks 0-16, m = 868) was 260 (30.0) n (%) and the “Weight % Change Category >5% to ≦10%, n (%)” value ([1]; 20 mg BID, Weeks 0-16, m = 868) was 13 (1.5) n (%). The “Weight % Change Category >10% to ≦20%, n (%)” value ([1]; 20 mg BID, Weeks 0-16, m = 868) was 1 (0.1) n (%), the “Weight % Change Category >20%, n (%)” value ([1]; 20 mg BID, Weeks 0-16, m = 868) was 0 n (%) and the “Weight % Change Category ≧−5% to <0%, n (%)” value ([1]; 20 mg BID, Weeks 0-16, m = 868) was 431 (49.7) n (%). The “Weight % Change Category ≧−10% to <−5%, n (%)” value ([1]; 20 mg BID, Weeks 0-16, m = 868) was 35 (4.0) n (%), the “Weight % Change Category ≧−20% to <−10%, n (%)” value ([1]; 20 mg BID, Weeks 0-16, m = 868) was 6 (0.7) n (%) and the “observed weight loss of greater than 10%, subjects n (%)” value ([1]; 20 mg BID) was 6 (0.7%) n (%). For the same compound, the “percentage of subjects with weight change of -10% to <−5%” value ([1]; 20 mg BID) was 4.0%, the “weight decrease reported, subjects n (%)” value ([1]; 30 mg BID) was 15 (1.5%) n (%) and the “weight loss of greater than 10%, subjects n (%)” value ([1]; 30 mg BID, Apremilast-exposure Period) was 36 (3.8%) n (%). For the same compound, the “Weight % Change Category 0%, n (%)” value [1, 8] was 71 (7.5) n (%), the “Weight % Change Category <−20%, n (%)” value [1, 8] was 0 n (%) and the “Weight % Change Category >0% to ≦5%, n (%)” value [1, 8] was 272 (28.8) n (%). For the same compound, the “Weight % Change Category >5% to ≦10%, n (%)” value [1, 8] was 46 (4.9) n (%), the “Weight % Change Category >10% to ≦20%, n (%)” value [1, 8] was 8 (0.8) n (%) and the “Weight % Change Category >20%, n (%)” value [1, 8] was 4 (0.4) n (%). For the same compound, the “Weight % Change Category ≧−5% to <0%, n (%)” value [1, 8] was 387 (41.0) n (%), the “Weight % Change Category ≧−10% to <−5%, n (%)” value [1, 8] was 120 (12.7) n (%) and the “Weight % Change Category ≧−20% to <−10%, n (%)” value [1, 8] was 36 (3.8) n (%). For the same compound, the “Change From Baseline (kg) Median (Min, Max)” value [1, 9] was −1.00 (−23.0, 17.1) kg, the “Weight, kg End of Period Mean ± SD” value [1, 9] was 83.61 ± 19.766 kg and the “Change From Baseline (kg) Mean ± SD” value ([1]; 30 mg BID, End of Period (APR, apremilast exposure), Subjects as Initially Treated at Week 0, listed as APR) was -1.26 kg and -1.26 ± 4.120 kg. For the same compound, the “Change From Baseline (kg) Median (Min, Max)” value [1, 10] was −0.60 (−13.7, 11.4) kg, the “Weight, kg End of Period Mean ± SD” value [1, 10] was 83.90 ± 19.670 kg and the “Change From Baseline (kg) Mean ± SD” value ([1]; 30 mg BID, End of Period (PBC, Week 24), Subjects as Initially Treated at Week 0, listed as APR) was -0.97 kg and -0.97 ± 3.016 kg. For the same compound, the “Change From Baseline (kg) Mean ± SD” value [1, 11] was -0.96 ± 5.534 kg, the “Weight, kg Time Point Mean ± SD” value [1, 11] was 84.09 ± 20.309 kg and the “Change From Baseline (kg) Median (Min, Max)” value [1, 12] was −1.30 (−23.0, 11.8) kg. The “Weight, kg Time Point Mean ± SD” value [1, 12] was 84.16 ± 19.253 kg, the “Change From Baseline (kg) Mean ± SD” value ([1]; 30 mg BID, Week 52, Apremilast Subjects as Treated, listed as APR) was -1.68 kg and -1.68 ± 4.049 kg and the “Change From Baseline (kg) Median (Min, Max)” value [1, 13] was −2.00 (−16.0, 17.1) kg. For the same compound, the “Weight, kg Time Point Mean ± SD” value [1, 13] was 83.53 ± 18.202 kg, the “Change From Baseline (kg) Mean ± SD” value ([1]; 30 mg BID, Week 78, Apremilast Subjects as Treated, listed as APR) was -2.14 kg and -2.14 ± 4.605 kg and the “Weight % Change Category 0%, n (%)” value ([1]; 30 mg BID, Weeks 0-16, m = 857) was 111 (13.0) n (%). The “Weight % Change Category <−20%, n (%)” value ([1]; 30 mg BID, Weeks 0-16, m = 857) was 0 n (%), the “Weight % Change Category >0% to ≦5%, n (%)” value ([1]; 30 mg BID, Weeks 0-16, m = 857) was 266 (31.0) n (%) and the “Weight % Change Category >5% to ≦10%, n (%)” value ([1]; 30 mg BID, Weeks 0-16, m = 857) was 10 (1.2) n (%). The “Weight % Change Category >10% to ≦20%, n (%)” value ([1]; 30 mg BID, Weeks 0-16, m = 857) was 1 (0.1) n (%), the “Weight % Change Category >20%, n (%)” value ([1]; 30 mg BID, Weeks 0-16, m = 857) was 3 (0.4) n (%) and the “Weight % Change Category ≧−5% to <0%, n (%)” value ([1]; 30 mg BID, Weeks 0-16, m = 857) was 424 (49.5) n (%). The “Weight % Change Category ≧−10% to <−5%, n (%)” value ([1]; 30 mg BID, Weeks 0-16, m = 857) was 35 (4.1) n (%), the “Weight % Change Category ≧−20% to <−10%, n (%)” value ([1]; 30 mg BID, Weeks 0-16, m = 857) was 7 (0.8) n (%) and the “observed weight loss of greater than 10%, subjects n (%)” value ([1]; 30 mg BID) was 7 (0.8%) n (%). The “percentage of subjects with weight change of -10% to <−5%” value ([1]; 30 mg BID) was 4.1%, the “weight decrease reported, subjects n (%)” value ([1]; all subjects who received apremilast) was 25 (1.3%) n (%) and the “body weight of the majority of subjects” value ([1]; regardless of duration of exposure) was “maintained their body weight within 0% and 5% of baseline”. The “% inhibition of PDE1” value (PDE1) was 23%.
